Columns and labels:
SBC-5 = test: The compound was tested for its inhibitory activity against SBC-5 human lung cancer cell line; assay type: functional, cell-based
[1] = target: T1, M-phase inducer phosphatase 1 (Homo sapiens, UniProt P30304); test: The compound was tested for its inhibitory activity against Cell division cycle 25A
T1 sequence (P30304 whole entry): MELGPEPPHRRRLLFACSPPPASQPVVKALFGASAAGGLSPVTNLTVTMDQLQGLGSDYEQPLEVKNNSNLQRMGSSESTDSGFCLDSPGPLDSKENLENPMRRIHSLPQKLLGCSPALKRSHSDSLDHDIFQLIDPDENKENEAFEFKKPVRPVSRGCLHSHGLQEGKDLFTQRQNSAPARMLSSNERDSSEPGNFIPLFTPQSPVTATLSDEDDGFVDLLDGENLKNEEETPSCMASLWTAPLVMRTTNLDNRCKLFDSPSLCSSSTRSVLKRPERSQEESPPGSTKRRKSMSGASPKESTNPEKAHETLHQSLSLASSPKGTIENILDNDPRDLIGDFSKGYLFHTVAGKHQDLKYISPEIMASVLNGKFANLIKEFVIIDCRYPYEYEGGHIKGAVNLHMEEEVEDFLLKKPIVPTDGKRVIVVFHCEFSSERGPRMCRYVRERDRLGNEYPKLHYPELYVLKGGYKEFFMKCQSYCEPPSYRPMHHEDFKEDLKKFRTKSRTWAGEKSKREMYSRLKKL

[2] = target: T2, M-phase inducer phosphatase 2 (Homo sapiens, UniProt P30305); test: The compound was tested for its inhibitory activity against Cell division cycle 25B
T2 sequence (P30305 whole entry): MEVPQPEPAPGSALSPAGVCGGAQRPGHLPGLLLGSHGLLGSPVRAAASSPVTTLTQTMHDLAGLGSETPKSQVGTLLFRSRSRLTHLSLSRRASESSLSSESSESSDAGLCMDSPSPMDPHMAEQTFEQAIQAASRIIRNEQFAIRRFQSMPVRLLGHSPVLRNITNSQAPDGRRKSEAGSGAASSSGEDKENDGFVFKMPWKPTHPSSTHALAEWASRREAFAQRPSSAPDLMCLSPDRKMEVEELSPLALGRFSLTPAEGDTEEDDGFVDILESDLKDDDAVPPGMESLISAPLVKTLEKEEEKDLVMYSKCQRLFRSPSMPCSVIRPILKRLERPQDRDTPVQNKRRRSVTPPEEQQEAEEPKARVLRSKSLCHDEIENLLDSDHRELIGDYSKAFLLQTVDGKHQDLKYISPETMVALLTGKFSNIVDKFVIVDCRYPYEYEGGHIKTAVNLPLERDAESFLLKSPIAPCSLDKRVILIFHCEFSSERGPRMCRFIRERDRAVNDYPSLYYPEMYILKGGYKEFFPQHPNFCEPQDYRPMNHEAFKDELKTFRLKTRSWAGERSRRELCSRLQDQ

HL-60 = test: The compound was tested for its inhibitory activity against HL-60 human leukemia cell line; assay type: functional, cell-based

| SMILES | IC50 (SBC-5) [µM] | IC50 [1] [µM] | IC50 [2] [µM] | IC50 (HL-60) [µM] |
| --- | --- | --- | --- | --- |
| C=C(C)CCC[C@]1(C)CCC[C@@H]2C1=CC[C@@H](C)[C@@H]2C[C@H](O)C1=CC(=O)OC1O (some centres undefined) | 4.4 | 15 | 27 | – |
| C=C(C)CCC[C@]1(C)CCC[C@@H]2C1=CC[C@@H](C)[C@]2(C)C[C@H](O)C1=CC(=O)OC1O (some centres undefined) | 1.3 | – | 18 | 1 |

More lines, in order of falling IC50 (SBC-5), values ahead:

| IC50 (SBC-5) [µM] | IC50 [1] [µM] | IC50 [2] [µM] | IC50 (HL-60) [µM] | SMILES |
| --- | --- | --- | --- | --- |
| 16 | – | 19 | – | C=C(C)CCC[C@@]1(C)CCC[C@H]2C1=CC[C@H](C)[C@]2(C)C[C@H](O)C1=CC(=O)O[C@@H]1O (stereo in doubt) |
| 12 | > 300 | > 300 | – | CC1(CC(O)C2=CC(=O)OC2O)CCCCC1 (centres undefined) |
| 5.4 | – | 87 | 7.1 | C=C(C)CCC[C@]1(C)CCC[C@@H]2C1=CC[C@@H](C)[C@@]2(C)C[C@@H](O)C1=CC(=O)O[C@H]1O [DYSIDIOLIDE] |

Source: ChEMBL document CHEMBL1132817 (Bioorg Med Chem Lett, 2000)
